Laboratory results: patent US20020016346A1, “Method for enhancing outflow of aqueous humor in treatment of glaucoma” (The Regents University of California, a California …, priority 1994, published 2002)

Test system: eye of a rabbit
Test: Intra-ocular pressure in rabbits after subconjunctival injection
Type: in vivo
Experimental: Male albino New Zealand rabbits weighing≧2 Kg were used for in vivo experiments performed under various active animal use protocols approved by the Institutional Animal Care and Use Committee at UC Davis. Animals were sedated with an intravenous dose of Napentabarbitol, 1-2 mg/Kg to permit their handling and frequent measurement of intra-ocular pressure (IOP). Topical anesthesia consisting of Proparacaine HCl (Alcaine™) was used for IOP measurements. A pneumatonometer (Mentor O & O Classic Model 30 Penumatonometer™, Norwell, Mass.) calibrated to a known (25 mmHg) pressure prior to each experiment was used for all IOP measurements. This model of Pneumatonometer provides a readout of standard deviation of each measurement; only measurements with a standard deviation of≦1 mmHg were accepted and most were less than 0.5 mmHg. Following sedation, IOP measurements were carried out over at least 30 minutes to assure that a stable baseline IOP was present.
Drugs and/or vehicle was administered to one eye of each animal via subconjunctival injection in order to bypass any barriers to drug penetration, such as an intact corneal and conjunctival epithelium and to achieve rapid and high concentrations of drug, bypassing epithelial barriers. The contralateral eye treated only with vehicle served as a control for each animal. Two syringes were prepared for each experiment, one containing drug and vehicle, the other containing only vehicle. […] Injections raised a prominent bleb, confirming subconjunctival placement of the drug or vehicle. This bleb then smoothed out over about ten minutes, indicating diffusion of the drug or vehicle throughout the subconjunctival space.
Measurements of intra-ocular pressure were taken at various intervals following the subconjunctival administration of the drug and/or vehicle. IOP in both eyes fluctuated over time reflecting the level of anesthesia. During the course of the experiment, the animal handlers and investigators were masked as to which eve had received the drug or control injection.

CCCCNc1cc(C(=O)O)cc(S(N)(=O)=O)c1Oc1ccccc1 [bumetanide]
average IOP lowering effect (average of two experiments, FIG. 6): over 20%
effect on IOP (bumetanide 10^−5 M in DMSO, 0.1 cc subconjunctival, first animal): rapid and pronounced and lasted beyond two hours
